Drawing on ChEMBL document CHEMBL1132469 (J Med Chem, 1999), this text covers IC50 for seven compounds.

Assay [1] addresses T1, Histone deacetylase HD2 (Zea mays, UniProt Q94F81).
T1 sequence (Q94F81 whole entry): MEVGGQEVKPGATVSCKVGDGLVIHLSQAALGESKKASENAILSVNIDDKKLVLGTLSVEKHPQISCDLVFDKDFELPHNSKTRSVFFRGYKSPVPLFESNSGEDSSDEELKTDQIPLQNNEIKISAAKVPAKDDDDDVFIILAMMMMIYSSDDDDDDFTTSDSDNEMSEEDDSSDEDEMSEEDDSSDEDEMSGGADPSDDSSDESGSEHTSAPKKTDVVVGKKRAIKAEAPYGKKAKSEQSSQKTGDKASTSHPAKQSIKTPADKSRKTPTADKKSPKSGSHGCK
Briefly: Inhibition of maize Histone deacetylase 2 (HD-2) activity.

For assay [2], the target named is T1, Histone deacetylase HD2. Briefly: Inhibition of maize Histone Deacetylase 2 (HD-2) activity (inactive at 40 uM).

In turn, `CN(C)c1ccc(C(=O)NCc2ccc(C(=O)NO)cc2)cc1` returned a half-inhibitory concentration (IC50) against Histone deacetylase HD2 [1] of 180 nM.

`CN(C)c1ccc(C(=O)Nc2ccc(CC(=O)NO)cc2)cc1`: the half-maximal inhibitory concentration (IC50) entry against Histone deacetylase HD2 [2] is given as “Not Active”.

With `CN(C)c1ccc(C(=O)NCCCCC(=O)NO)cc1`, the 50% inhibitory concentration (IC50) against Histone deacetylase HD2 [1] worked out at 2000 nM.

Take `CN(C)c1ccc(C(=O)NCCCCCC(=O)NO)cc1`: half-maximal inhibition against Histone deacetylase HD2 [1] (IC50) was put at 100 nM.

In the case of `CN(C)c1ccc(C(=O)Nc2ccc(CC(=O)O)cc2)cc1`, at Histone deacetylase HD2 [2], the IC50 result is “Not Active”.

In the case of `O=C(O)CCCCCNC(=O)c1ccccc1`, the concentration for half-maximal inhibition (IC50) entry against Histone deacetylase HD2 [2] is reported as “Not Active”.

Turning to `CN(C)c1ccc(C(=O)NCCCCCCC(=O)NO)cc1`, half-maximal inhibition against Histone deacetylase HD2 [1] (IC50) required 100 nM.

The IC50 is the concentration that inhibits the measured activity by half.
